Here are results for one compound from US20030021856A1, “New use of ammonium compounds and/or urea” (priority 1996, published 2003).

Series [1] in a line: Peroral self-administration of ammonium chloride by the inventor (respiratory gas exchange). In kind it is in vivo, human. Conditions: 80 mmoles ammonium chloride perorally. From the text:
Please replace the paragraph beginning at line 1 on page 5 with the following: portal area, especially at acidosis, can be utilized for synthesis of glutamine in the liver. […] When the patient treated is breathing by themself, the supply of ammonium will bring about a so-called compensatory hyperventilation. […] Furthermore, there is a report on the concentration of urea in the vitreous body of dead SIDS patients which is compared to autopsy material from children deceased from other causes at the same age [Blumenfeld T A, et al, Am J Clin Pathol, 71, 219-223 (1979)]. It appeared that children deceased from SIDS have lower urea values than children deceased from other causes. […] The low concentration of urea found is thus not inconsistent with the hypothesis put forward here.

The conditions of series [2]: supplied intravenously and perorally; known by intensive care physicians; cited from earlier work.

`Cl.N` [ammonium chloride]: in series [1], the “duration of the increased carbon dioxide elimination” value is roughly 1 h, the effect on ventilation result is given as “slight hyperventilation”, the “increase in elimination of carbon dioxide” value stood at 30 mL/min and the “resorption from the gastrointestinal tract” value is on record as “resorbed very quickly”. Further, the “total carbon dioxide corresponding to the increased elimination” value in series [1] (30 ml/min for nearly 1h) is reported as “about 80 mmoles”. For the same compound, the “RQ (Respiratory Quotient = carbon dioxide emission / oxygen gas uptake) after administration” value in series [1] (value at rest 0.82) was determined as 0.87. Also, in series [2], the “effect on base excess values” is given as “lowers base excess values”.
